Drawing on the supplement of paper PMC11061612, this text covers Bliss excess for 16 molecules.

Experiment in all cases: Bliss excess, mean over the matrix (fraction); higher = more synergy
The test system of test [1] is NCI-H2085 (Non-Small Cell Lung Carcinoma). In a few lines:
(§1)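 Cell lines grown in DMEM/F12 or RPMI with 10% FBS were plated in 1536-well plates and held 24 hours at 37°C, 5% CO2 before 72 hours of exposure to two-drug dose matrices, with DMSO typically at 0.2%. CellTiter-Glo 2.0 luminescence gave viability, which was converted to inhibition. Vehicle wells were set to 0 and blank wells to 1. Combination Emax is the second-highest inhibition in the matrix, and Bliss excess is the observed combination effect minus the expected EA + EB − EA·EB, where EA and EB are the single-agent effects.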

Test [2] deals with UM-UC-3 (Bladder Carcinoma). The method in brief: as §1
Test [3] has as its system Ramos-2G6-4C10 (Burkitt's Lymphoma). In a few lines: as §1
In test [4] the test system is HO-1-N-1 (Oral Cavity Carcinoma). In a few lines:
as §1

For test [5], the system named is LB831-BLC (Bladder Carcinoma). In a few lines:
as §1

Test [6] relates to HT-1376 (Bladder Carcinoma). In a few lines: as §1
Test [7] relates to KURAMOCHI (Ovarian Carcinoma). The method in brief:
as §1

Test [8] deals with Calu-3 (Lung Adenocarcinoma). In a few lines: as §1

Regarding `C=CCn1c(=O)c2cnc(Nc3ccc(N4CCN(C)CC4)cc3)nc2n1-c1cccc(C(C)(C)O)n1` [AZD1775] + CCc1c2c(nc3ccc(O)cc13)-c1cc3c(c(=O)n1C2)COC(=O)[C@]3(O)CC [SN-38] (first compound max 1 µM, partner max 0.3 µM), the Bliss excess in test [1] was -0.0202; in test [2], -0.0431; in test [3] it was 0.0943; in test [4], -0.0092; in test [5] it was 0.0518; in test [6], -0.0194. Further, the Bliss excess in test [7] is -0.0053; in test [8] it was -0.0341.
`C=CCn1c(=O)c2cnc(Nc3ccc(N4CCN(C)CC4)cc3)nc2n1-c1cccc(C(C)(C)O)n1` [AZD1775] + Nc1ccn([C@@H]2O[C@H](CO)[C@@H](O)C2(F)F)c(=O)n1 [Gemcitabine] (first compound max 1 µM, partner max 0.3 µM): the Bliss excess in test [1] is 0.032; in test [2], 0.0758; in test [3], 0.186; in test [4], 0.0188; in test [5], 0.0909; in test [6] it was -0.0432. For the same molecule, the figures for the Bliss excess in test [7] and in test [8] were 0.0284 and -0.013, respectively.
As to `CN(CCO)CC[C@H](CSc1ccccc1)Nc1ccc(S(=O)(=O)NC(=O)c2ccc(N3CCC([C@@H](O)c4ccccc4-c4ccc(Cl)cc4)CC3)cc2)cc1S(=O)(=O)C(F)(F)F` [AZD4320] + CC(=O)O[C@H]1C(=O)[C@@]2(C)[C@H]([C@H](OC(=O)c3ccccc3)[C@]3(O)C[C@H](OC(=O)[C@H](O)[C@@H](NC(=O)c4ccccc4)c4ccccc4)C(C)=C1C3(C)C)[C@]1(OC(C)=O)CO[C@@H]1C[C@@H]2O [Paclitaxel] (first compound max 1 µM, 7x7, partner max 3 µM), the Bliss excess in test [1] was 0.207; in test [2], 0.192; in test [3], -0.151; in test [4] it was 0.0178; in test [5], 0.104; in test [6], 0.0857. In addition, the Bliss excess in test [7] was 0.0929; in test [8], -0.0045.
In the case of `CN(CCO)CC[C@H](CSc1ccccc1)Nc1ccc(S(=O)(=O)NC(=O)c2ccc(N3CCC([C@@H](O)c4ccccc4-c4ccc(Cl)cc4)CC3)cc2)cc1S(=O)(=O)C(F)(F)F` [AZD4320] + CS(=O)(=O)CCNCc1ccc(-c2ccc3ncnc(Nc4ccc(OCc5cccc(F)c5)c(Cl)c4)c3c2)o1 [Lapatinib] (first compound max 1 µM, 7x7, partner max 10 µM), the Bliss excess in test [1] was determined as 0.019; in test [2] it was 0.0099; in test [3], 0.117; in test [4], 0.0439; in test [5], 0.0245; in test [6], 0.0125. The values for the Bliss excess in test [7] and in test [8] were 0.0392 and 0.0224, respectively.
In the case of `CN(CCO)CC[C@H](CSc1ccccc1)Nc1ccc(S(=O)(=O)NC(=O)c2ccc(N3CCC([C@@H](O)c4ccccc4-c4ccc(Cl)cc4)CC3)cc2)cc1S(=O)(=O)C(F)(F)F` [AZD4320] + Nc1ccn([C@@H]2O[C@H](CO)[C@@H](O)C2(F)F)c(=O)n1 [Gemcitabine] (first compound max 1 µM, 7x7, partner max 0.3 µM), the Bliss excess is 0.0228 in test [1]; -0.0229 in test [2]; -0.0368 in test [3]; -0.0049 in test [4]; -0.0192 in test [5]; -0.0644 in test [6]. Moreover, the Bliss excess in test [7] was found to be 0.0216; in test [8], 0.0076.
Turning to `Cc1c2c(nn1C)CSCc1cc(n(C)n1)CSc1cc(c3ccccc3c1)OCCCc1c(C(=O)O)n(C)c3c-2c(Cl)ccc13` [AZD5991] + CC(=O)O[C@H]1C(=O)[C@@]2(C)[C@H]([C@H](OC(=O)c3ccccc3)[C@]3(O)C[C@H](OC(=O)[C@H](O)[C@@H](NC(=O)c4ccccc4)c4ccccc4)C(C)=C1C3(C)C)[C@]1(OC(C)=O)CO[C@@H]1C[C@@H]2O [Paclitaxel] (first compound max 1 µM, 7x7, partner max 3 µM), the Bliss excess in test [1] was 0.0904; in test [2], -0.0693; in test [3], -0.104; in test [4], 0.0062; in test [5] it was 0.0261; in test [6], -0.0424. For the same molecule, the Bliss excess is 0.0479 in test [7] and -0.0064 in test [8].
As for `Cc1c2c(nn1C)CSCc1cc(n(C)n1)CSc1cc(c3ccccc3c1)OCCCc1c(C(=O)O)n(C)c3c-2c(Cl)ccc13` [AZD5991] + CS(=O)(=O)CCNCc1ccc(-c2ccc3ncnc(Nc4ccc(OCc5cccc(F)c5)c(Cl)c4)c3c2)o1 [Lapatinib] (first compound max 1 µM, 7x7, partner max 10 µM), the Bliss excess in test [1] was 0.0494; in test [2], -0.001; in test [3] it was 0.0153; in test [4] it was 0.0972; in test [5], -0.0215; in test [6], -0.0102. The Bliss excess is -0.012 in test [7] and 0.0244 in test [8].
Consider `Cc1c2c(nn1C)CSCc1cc(n(C)n1)CSc1cc(c3ccccc3c1)OCCCc1c(C(=O)O)n(C)c3c-2c(Cl)ccc13` [AZD5991] + Nc1ccn([C@@H]2O[C@H](CO)[C@@H](O)C2(F)F)c(=O)n1 [Gemcitabine] (first compound max 1 µM, 7x7, partner max 0.3 µM), for which the Bliss excess in test [1] is -0.021; in test [2], -0.0402; in test [3], 0.0162; in test [4], -0.0071; in test [5], -0.0443; in test [6], -0.03. For the same molecule, the Bliss excess in test [7] was 0.0117; in test [8] it was -0.0191.
In the case of `C[C@@H]1COCCN1c1cc(C2([S@](C)(=N)=O)CC2)nc(-c2ccnc3[nH]ccc23)n1` [AZD6738] + C1CC(C1)(C(=O)[O-])C(=O)[O-].N.N.[Pt+2] [Carboplatin] (first compound max 10 µM, 7x7, partner max 10 µM), the Bliss excess is -0.067 in test [1]; -0.0213 in test [2]; -0.0421 in test [3]; 0.0156 in test [4]; -0.051 in test [5]; -0.039 in test [6]. The Bliss excess in test [7] was 0.0222; in test [8], -0.0397.
As to `C[C@@H]1COCCN1c1cc(C2([S@](C)(=N)=O)CC2)nc(-c2ccnc3[nH]ccc23)n1` [AZD6738] + Nc1ccn([C@@H]2O[C@H](CO)[C@@H](O)C2(F)F)c(=O)n1 [Gemcitabine] (first compound max 10 µM, 7x7, partner max 0.3 µM), the Bliss excess was 0.07 in test [1]; 0.113 in test [2]; 0.15 in test [3]; 0.0528 in test [4]; 0.113 in test [5]; -0.0097 in test [6]. Also, the Bliss excess in test [7] worked out at 0.0761; in test [8], 0.0685.
`Cc1cc2ncnn2cc1Nc1ncc2c(n1)n(C1CCOCC1)c(=O)n2C` [AZD7648] + COc1cc([C@@H]2c3cc4c(cc3[C@@H](O[C@@H]3O[C@@H]5CO[C@@H](C)O[C@H]5[C@H](O)[C@H]3O)[C@H]3COC(=O)[C@H]23)OCO4)cc(OC)c1O [Etoposide] (first compound max 10 µM, 7x7, partner max 10 µM): the Bliss excess was 0.0734 in test [1]; 0.105 in test [2]; 0.0563 in test [3]; 0.23 in test [4]; 0.103 in test [5]; -0.0021 in test [6]. Also, the Bliss excess came to 0.0716 in test [7] and 0.1 in test [8].
For the molecule `C[C@@H](Nc1cc(F)cc(F)c1)c1cc(C(=O)N(C)C)cc2c(=O)cc(N3CCOCC3)oc12` [AZD8186] + C1CN(CCC1(C(=O)N[C@@H](CCO)C2=CC=C(C=C2)Cl)N)C3=NC=NC4=C3C=CN4 [AZD5363] (first compound max 10 µM, 7x7, partner max 10 µM), the Bliss excess was -0.045 in test [1]; 0.0454 in test [2]; -0.0898 in test [3]; 0.0627 in test [4]; -0.0398 in test [5]; -0.0404 in test [6]. The Bliss excess in test [7] was -0.037; in test [8], 0.0001.
For the molecule `C[C@@H](Nc1cc(F)cc(F)c1)c1cc(C(=O)N(C)C)cc2c(=O)cc(N3CCOCC3)oc12` [AZD8186] + CC(=O)c1c(C)c2cnc(Nc3ccc(N4CCNCC4)cn3)nc2n(C2CCCC2)c1=O [Palbociclib] (first compound max 10 µM, 7x7, partner max 10 µM), the Bliss excess in test [1] is 0.0565; in test [2], 0.131; in test [3], -0.0328; in test [4] it was 0.0805; in test [5], -0.0414; in test [6], -0.037. Besides, the Bliss excess in test [7] was -0.0358; in test [8] it was -0.0036.
For `C[C@@H](Oc1cc(-c2cnn(C3CCNCC3)c2)cnc1N)c1c(Cl)ccc(F)c1Cl` [Crizotinib] + CC1=C(C(=CC=C1)Cl)NC(=O)C2=CN=C(S2)NC3=CC(=NC(=N3)C)N4CCN(CC4)CCO [Dasatinib] (first compound max 10 µM, 7x7, partner max 2 µM), the Bliss excess in test [1] was 0.0551; in test [2], 0.0577; in test [3] it was -0.0216; in test [4], 0.0921; in test [5] it was 0.0269; in test [6], -0.0104. For the same molecule, the results for the Bliss excess in test [7] and in test [8] were -0.0038 and -0.0158, respectively.
Turning to `C[C@@H](Oc1cc(-c2cnn(C3CCNCC3)c2)cnc1N)c1c(Cl)ccc(F)c1Cl` [Crizotinib] + Cn1cnc2c(F)c(Nc3ccc(Br)cc3Cl)c(C(=O)NOCCO)cc21 [Selumetinib] (first compound max 10 µM, 7x7, partner max 10 µM), the Bliss excess in test [1] is -0.0399; in test [2] it was -0.0136; in test [3], -0.0875; in test [4], -0.0087; in test [5] it was -0.049; in test [6], -0.0419. Moreover, the figures for the Bliss excess in test [7] and in test [8] were -0.0483 and -0.0507, respectively.
On to `N#Cc1cnc(Nc2cc(NC[C@H]3CNCCO3)c(C(F)(F)F)cn2)cn1` [SRA737] + C=CCn1c(=O)c2cnc(Nc3ccc(N4CCN(C)CC4)cc3)nc2n1-c1cccc(C(C)(C)O)n1 [AZD1775] (first compound max 10 µM, partner max 1 µM), for which the Bliss excess is 0.0749 in test [2]; 0.119 in test [3]; 0.0976 in test [4]; -0.0446 in test [5]; 0.0357 in test [6]; -0.0194 in test [7]. Further, the Bliss excess in test [8] came to 0.0228.
